The assay deals with platelets. Put plainly: Microscopic platelet degranulation at 5° C. with cryoprotective agents. Format: cell-based, human. Also on record: key to effect on microscopic degranulation, 0.75% / effect on microscopic degranulation, 0.38% / effect on microscopic degranulation, 3% / effect on microscopic degranulation, 1.5% / effect of cryoprotective on platelet degranulation, 3% / effect of cryoprotective on platelet degranulation, 1.5% / effect of cryoprotective on platelet degranulation, 0.75% / effect of cryoprotective on platelet degranulation, 0.38%: none: None = no effect detected ~90% complete degranulation; fair: Fair = 25 to 50% of platelets are non-degranulated; good: Good = >80 are non-degranulated. The settings on record: for effect of cryoprotective on platelet degranulation, 3% / effect on microscopic degranulation, 3%: 3% final in ACD-Platelet mixture; for platelet colour / granule preservation: 5° C.; for effect of cryoprotective on platelet degranulation, 0.38% / effect on microscopic degranulation, 0.38%: 0.38% final in ACD-Platelet mixture; for effect of cryoprotective on platelet degranulation, 0.75% / effect on microscopic degranulation, 0.75%: 0.75% final in ACD-Platelet mixture; for effect of cryoprotective on platelet degranulation, 1.5% / effect on microscopic degranulation, 1.5%: 1.5% final in ACD-Platelet mixture. The procedure:
Platelet aggregation using epinephrine. Ten ml of 24 hr old platelet residual was derived from one platelet unit and split into two 5 ml aliquots in 50 ml tubes. One sample received 10% phosphate buffered saline (PBS) and one 10% PBS containing PEG400 such that the final PEG concentration was 2%. These samples were placed on a flat-bed rotator with a 1 inch stroke, at 70 cycles per min, at 5° C. for 7 days. 100 ul of these platelet suspensions were added to wells of a 96 well U bottom plate. Epinephrine 0.1 mg/ml (Pharmaceutical NDC 0409-4921-34-44-048-DK) was diluted with PBS and 100 ul was added to test wells to give a finial concentration of 10 mcg/ml. The plate was rotated overnight to allow aggregation. The extent of aggregation was read using an ELISA plate reader (Molecular Devises, Vmax) at 690 nm wavelength. Platelets, with and without PEG, were also aggregated by the addition of 10% H2O2. Hydrogen peroxide is not an agonist for the platelet receptor; however exposure to hydrogen peroxide mimics the platelet storage lesion though membrane ageing. In this study, the inventors tested 2 day old residual platelets form one donor unit by splitting the material in to a 24 well cluster plate. Control platelets had 10% PBS added and were compared to test compositions with the addition of 10% volume PBS plus 2% PEG-400. 10% v/v (Hydrogen peroxide 3%) was then added to all wells simultaneously using a multichannel pipette. Wells were photographed following 1 hr room temperature incubation (see FIGS. 2A-B and FIG. 3). Table 3 presents additional cryoprotective agents scored for the effect on microscopic degranulation (20× high contrast lighting as above).
The following methods were used: “Fresh” in-date 2 day old blood bank O pos random donor platelets were recovered from segments and held in a 50 cc tub with rotation 22° C., 70 cycles/min 1 inch stroke) for 30 min. Glycerol (Fisher tissue grade product) was obtained from virology diluted to 50% in sterile saline and filter sterilized. 12 g glycerol were added to 12 ml sterile saline (BioMeriux—vitek saline) and mixed. This mixture was filter sterilized using a 0.45 um filter (CELLULOSE ACETATE). Dilutions were made of the above saline to a concentration 50%, 25%, 12%, 6%, […]. 200 ul of platelets were withdrawn slowly (8 sec) and add slowly to 7 sterile 2 ml microcentrifuge tubes. 200 ul of 50%, 25%, 12% 6%, and 3% glycerol/saline and two controls using 200 ul saline, were then added to the platelets with slow mixing. Thus the final glycerol concentrations=25, 12, 6, 3, and 1.5. These aliquots were allowed to rotate at room temp as above for 5 min and then placed on a rotator at 70 cycles/min with a 1 inch stroke at 5° C. (temp previously equilibrated and documented at 5° C.)
At day 3, dark dense platelets were observed, indicating degranulation in the control groups (in both control groups A & B). A variation in platelet size was observed: small and dense indicating degranulation, vs. normal morphology pale plump platelets without the dense small degranulated appearance. Degranulation in response to cold storage is associated with the first step of the platelet activation GP-1 signal resulting in α-granule degranulation and massive extracellular release of vWF. (Suhasini el al., 2010). Table 4 presents a summary of additional cryoprotective agents scored for the effect on microscopic degranulation (20× high contrast lighting as above).

Where [1] appears, read: 6% final in ACD-Platelet mixture, 10 days at 5° C.

For `OCC(O)CO` [Glycerol], the “5° C. induced degranulation” value (3% and 6% glycerol, at 3, 6, and 10 days) was “prevented 5 °C induced degranulation”. Also, where the note is “10 days at 5° C.”, the “effect of cryoprotective on platelet degranulation, 3%” value (“effect of cryoprotective … 3%” below) is listed as “fair (Fair = 25 to 50% of platelets are non-degranulated)” and the “effect on microscopic degranulation, 3%” value is “fair (Fair = 25 to 50% of platelets are non-degranulated)”. Also, the “platelet colour / granule preservation” value (3% glycerol or 6% glycerol, day 10) is “light color of platelets was observed, indicating granule preservation”. The “platelet colour / granule preservation” value (3% glycerol, day 3) is on record as “light color of platelets was observed, indicating granule preservation”. Under “3% glycerol, day 6”, the “platelet colour / granule preservation” value is given as “light color of platelets was observed, indicating granule preservation”. In addition, under setting [1], the “effect of cryoprotective on platelet degranulation, 6%” value is listed as “good (Good = >80 are non-degranulated)” and the “effect on microscopic degranulation, 6%” value is listed as “good (Good = >80 are non-degranulated)”.

Turning to Methoxy PEG, where the note is “6 days at 5° C.”, the “effect of cryoprotective on platelet degranulation, 0.38%” value (“effect of cryoprotective … 0.38%” for short) is listed as “none”; the “effect on microscopic degranulation, 0.38%” value was “none”; the “effect of cryoprotective on platelet degranulation, 0.75%” value (shortened to “effect of cryoprotective … 0.75%”) is reported as “none”; the “effect on microscopic degranulation, 0.75%” value is reported as “none”. Also, where the note is “6 days at 5° C.”, the “effect of cryoprotective on platelet degranulation, 1.5%” value (“effect of cryoprotective … 1.5%” below) is on record as “good (Good = >80 are non-degranulated)”; the “effect on microscopic degranulation, 1.5%” value is given as “good (Good = >80 are non-degranulated)”; the “effect of cryoprotective … 3%” value is “good (Good = >80 are non-degranulated)”; the “effect on microscopic degranulation, 3%” value is “good (Good = >80 are non-degranulated)”.

For glycerol propoxylate, for the setting “6 days at 5° C.”, the “effect of cryoprotective … 0.38%” value was “none”; the “effect on microscopic degranulation, 0.38%” value is “none”; the “effect of cryoprotective … 0.75%” value is “fair (Fair = 25 to 50% of platelets are non-degranulated)”; the “effect on microscopic degranulation, 0.75%” value is on record as “fair (Fair = 25 to 50% of platelets are non-degranulated)”. Besides, for the setting “6 days at 5° C.”, the “effect of cryoprotective … 1.5%” value is “fair (Fair = 25 to 50% of platelets are non-degranulated)”; the “effect on microscopic degranulation, 1.5%” value is reported as “fair (Fair = 25 to 50% of platelets are non-degranulated)”; the “effect of cryoprotective … 3%” value is listed as “none”; the “effect on microscopic degranulation, 3%” value is reported as “none”.

In the case of pentaerythritol ethoxylate, under “6 days at 5° C.”, the “effect of cryoprotective … 0.38%” value is on record as “none”; the “effect on microscopic degranulation, 0.38%” value is reported as “none”; the “effect of cryoprotective … 0.75%” value is “none”; the “effect on microscopic degranulation, 0.75%” value was “none”. Under “6 days at 5° C.”, the “effect of cryoprotective … 1.5%” value is given as “none”; the “effect on microscopic degranulation, 1.5%” value is “none”; the “effect of cryoprotective … 3%” value was “none”; the “effect on microscopic degranulation, 3%” value is reported as “none”.

Turning to pentaerythritol propoxylate, where the note is “6 days at 5° C.”, the “effect of cryoprotective … 0.38%” value was “fair (Fair = 25 to 50% of platelets are non-degranulated)”; the “effect on microscopic degranulation, 0.38%” value is “fair (Fair = 25 to 50% of platelets are non-degranulated)”; the “effect of cryoprotective … 0.75%” value is “none”; the “effect on microscopic degranulation, 0.75%” value is given as “none”. In addition, where the note is “6 days at 5° C.”, the “effect of cryoprotective … 1.5%” value is “none”; the “effect on microscopic degranulation, 1.5%” value is “none”; the “effect of cryoprotective … 3%” value is recorded as “none”; the “effect on microscopic degranulation, 3%” value is “none”.

On to “trimethylolpropane ethoxylate [Trimethylopropane ethoxylate]”, for which, under “6 days at 5° C.”, the “effect of cryoprotective … 0.38%” value is listed as “none”; the “effect on microscopic degranulation, 0.38%” value was “none”; the “effect of cryoprotective … 0.75%” value is “none”; the “effect on microscopic degranulation, 0.75%” value was “none”. Further, where the note is “6 days at 5° C.”, the “effect of cryoprotective … 1.5%” value is reported as “none”; the “effect on microscopic degranulation, 1.5%” value is on record as “none”; the “effect of cryoprotective … 3%” value is reported as “none”; the “effect on microscopic degranulation, 3%” value was “none”.

Source of the values: patent US10897891B2, “Compositions and methods for prolonged cell storage” (Board of Regents, The University of Texas System, priority 2015, dated 2021).
